In the supplement of paper PMC10307832:

Key:
Assay in all cases: relative viability (nuclei count vs DMSO), 5 days (fraction); higher = more cells survive
[1] = test system: A549
Outline: (§1)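 Relative viability equals treated-well nuclei counts divided by vehicle-well nuclei counts. Counts came from 4× images of lung cancer cell lines grown in 1536-well plates for 5 days after pin-tool dosing on the day after seeding. Dosing used one drug alone or a fixed anchor-drug dose plus five library-drug doses (not always all listed) in √10 steps, and values are medians of duplicate plates.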

[2] = test system: Calu-6
Outline: as §1

[3] = test system: EBC-1
Outline: as §1

[4] = test system: EMC-BAC-2
Outline: as §1

[5] = test system: HCC-366
Outline: as §1

[6] = test system: HCC-78
Outline: as §1

[7] = test system: IA-LM
Outline: as §1

[8] = test system: LCLC-97TM1
Outline: as §1

[9] = test system: NCI-H1299
Outline: as §1

[10] = test system: NCI-H1395
Outline: as §1

[11] = test system: NCI-H1703
Outline: as §1

**Q.** `Nc1cccc2c1CN(C1CCC(=O)NC1=O)C2=O` (centres undefined) [Lenalidomide] + CS(=O)(=O)CCNCc1ccc(-c2ccc3ncnc(Nc4ccc(OCc5cccc(F)c5)c(Cl)c4)c3c2)o1 [Lapatinib] (partner 2 µM) was tested. Which relative viability ([1]; first compound 0.253 µM) did it give?
**A.** Its relative viability is 1.06.

**Q.** What about the relative viability ([1]; first compound 0.8 µM) of the same compound?
**A.** Its relative viability is 1.09.

**Q.** And the relative viability ([1]; first compound 2.53 µM)?
**A.** Its relative viability is 0.972.

**Q.** And the relative viability ([1]; first compound 8 µM)?
**A.** Its relative viability is 1.02.

**Q.** What about the relative viability ([2]; first compound 0.253 µM) of the same compound?
**A.** Its relative viability is 0.971.

**Q.** And the relative viability ([2]; first compound 0.8 µM)?
**A.** The relative viability was 1.09.

**Q.** What about the relative viability ([2]; first compound 2.53 µM) of the same compound?
**A.** Its relative viability is 1.17.

**Q.** What about the relative viability ([2]; first compound 8 µM) of the same compound?
**A.** Its relative viability is 1.13.

**Q.** What about the relative viability ([3]; first compound 0.253 µM) of the same compound?
**A.** The relative viability was 0.211.

**Q.** And the relative viability ([3]; first compound 0.8 µM)?
**A.** Its relative viability is 0.205.

**Q.** What about the relative viability ([3]; first compound 2.53 µM) of the same compound?
**A.** Its relative viability is 0.217.

**Q.** And the relative viability ([3]; first compound 8 µM)?
**A.** The relative viability was 0.235.

**Q.** And the relative viability ([4]; first compound 0.253 µM)?
**A.** Its relative viability is 0.921.

**Q.** And the relative viability ([4]; first compound 0.8 µM)?
**A.** Its relative viability is 0.825.

**Q.** What about the relative viability ([4]; first compound 2.53 µM) of the same compound?
**A.** Its relative viability is 0.905.

**Q.** What about the relative viability ([4]; first compound 8 µM) of the same compound?
**A.** The relative viability was 0.754.

**Q.** And the relative viability ([5]; first compound 0.253 µM)?
**A.** Its relative viability is 1.03.

**Q.** What about the relative viability ([5]; first compound 0.8 µM) of the same compound?
**A.** The relative viability was 1.1.

**Q.** And the relative viability ([5]; first compound 2.53 µM)?
**A.** The relative viability was 1.03.

**Q.** And the relative viability ([5]; first compound 8 µM)?
**A.** The relative viability was 1.07.

**Q.** And the relative viability ([6]; first compound 0.253 µM)?
**A.** Its relative viability is 0.811.

**Q.** And the relative viability ([6]; first compound 0.8 µM)?
**A.** The relative viability was 0.367.

**Q.** And the relative viability ([6]; first compound 2.53 µM)?
**A.** The relative viability was 0.245.

**Q.** What about the relative viability ([6]; first compound 8 µM) of the same compound?
**A.** The relative viability was 0.271.

**Q.** And the relative viability ([7]; first compound 0.253 µM)?
**A.** Its relative viability is 0.647.

**Q.** And the relative viability ([7]; first compound 0.8 µM)?
**A.** The relative viability was 0.557.

**Q.** What about the relative viability ([7]; first compound 2.53 µM) of the same compound?
**A.** The relative viability was 0.613.

**Q.** What about the relative viability ([7]; first compound 8 µM) of the same compound?
**A.** The relative viability was 0.532.

**Q.** And the relative viability ([8]; first compound 0.8 µM)?
**A.** The relative viability was 0.602.

**Q.** And the relative viability ([8]; first compound 2.53 µM)?
**A.** The relative viability was 1.09.

**Q.** And the relative viability ([8]; first compound 8 µM)?
**A.** Its relative viability is 0.623.

**Q.** What about the relative viability ([9]; first compound 0.253 µM) of the same compound?
**A.** The relative viability was 0.961.

**Q.** And the relative viability ([9]; first compound 0.8 µM)?
**A.** Its relative viability is 0.873.

**Q.** What about the relative viability ([9]; first compound 2.53 µM) of the same compound?
**A.** The relative viability was 0.948.

**Q.** What about the relative viability ([9]; first compound 8 µM) of the same compound?
**A.** The relative viability was 1.01.

**Q.** What about the relative viability ([10]; first compound 0.253 µM) of the same compound?
**A.** The relative viability was 1.1.

**Q.** What about the relative viability ([10]; first compound 2.53 µM) of the same compound?
**A.** Its relative viability is 0.948.

**Q.** And the relative viability ([10]; first compound 8 µM)?
**A.** Its relative viability is 0.845.

**Q.** And the relative viability ([11]; first compound 0.253 µM)?
**A.** Its relative viability is 1.06.

**Q.** And the relative viability ([11]; first compound 0.8 µM)?
**A.** The relative viability was 1.78.

**Q.** What about the relative viability ([11]; first compound 2.53 µM) of the same compound?
**A.** Its relative viability is 1.42.

**Q.** What about the relative viability ([11]; first compound 8 µM) of the same compound?
**A.** Its relative viability is 1.24.

**Q.** Which relative viability ([1]; first compound 0.253 µM) does the source give for `Nc1cccc2c1CN(C1CCC(=O)NC1=O)C2=O` (centres undefined) [Lenalidomide] + Cc1nc(NC(=O)N2CCC[C@H]2C(N)=O)sc1-c1ccnc(C(C)(C)C(F)(F)F)c1 [Alpelisib] (partner 2 µM) here?
**A.** The relative viability was 0.789.

**Q.** What about the relative viability ([1]; first compound 0.8 µM) of the same compound?
**A.** Its relative viability is 0.765.

**Q.** And the relative viability ([1]; first compound 2.53 µM)?
**A.** Its relative viability is 0.813.

**Q.** What about the relative viability ([1]; first compound 8 µM) of the same compound?
**A.** Its relative viability is 0.702.

**Q.** What about the relative viability ([2]; first compound 0.253 µM) of the same compound?
**A.** Its relative viability is 0.945.

**Q.** What about the relative viability ([2]; first compound 0.8 µM) of the same compound?
**A.** Its relative viability is 0.946.

**Q.** What about the relative viability ([2]; first compound 2.53 µM) of the same compound?
**A.** Its relative viability is 1.08.

**Q.** And the relative viability ([2]; first compound 8 µM)?
**A.** The relative viability was 1.02.

**Q.** And the relative viability ([3]; first compound 0.253 µM)?
**A.** Its relative viability is 0.787.

**Q.** And the relative viability ([3]; first compound 0.8 µM)?
**A.** The relative viability was 0.798.

**Q.** And the relative viability ([3]; first compound 2.53 µM)?
**A.** The relative viability was 0.907.

**Q.** What about the relative viability ([3]; first compound 8 µM) of the same compound?
**A.** Its relative viability is 1.01.

**Q.** What about the relative viability ([4]; first compound 0.253 µM) of the same compound?
**A.** The relative viability was 0.691.

**Q.** What about the relative viability ([4]; first compound 0.8 µM) of the same compound?
**A.** The relative viability was 0.706.

**Q.** What about the relative viability ([4]; first compound 2.53 µM) of the same compound?
**A.** The relative viability was 0.762.

**Q.** What about the relative viability ([4]; first compound 8 µM) of the same compound?
**A.** Its relative viability is 0.625.

**Q.** And the relative viability ([5]; first compound 0.253 µM)?
**A.** Its relative viability is 0.402.

**Q.** And the relative viability ([5]; first compound 0.8 µM)?
**A.** Its relative viability is 0.336.

**Q.** And the relative viability ([5]; first compound 2.53 µM)?
**A.** The relative viability was 0.549.

**Q.** And the relative viability ([5]; first compound 8 µM)?
**A.** Its relative viability is 0.324.

**Q.** What about the relative viability ([6]; first compound 0.253 µM) of the same compound?
**A.** The relative viability was 0.381.

**Q.** What about the relative viability ([6]; first compound 0.8 µM) of the same compound?
**A.** The relative viability was 0.339.

**Q.** What about the relative viability ([6]; first compound 2.53 µM) of the same compound?
**A.** Its relative viability is 0.314.

**Q.** And the relative viability ([6]; first compound 8 µM)?
**A.** The relative viability was 0.209.

**Q.** And the relative viability ([7]; first compound 0.253 µM)?
**A.** The relative viability was 0.716.

**Q.** What about the relative viability ([7]; first compound 0.8 µM) of the same compound?
**A.** Its relative viability is 0.735.

**Q.** And the relative viability ([7]; first compound 2.53 µM)?
**A.** The relative viability was 0.797.

**Q.** What about the relative viability ([7]; first compound 8 µM) of the same compound?
**A.** Its relative viability is 0.75.

**Q.** And the relative viability ([8]; first compound 0.8 µM)?
**A.** Its relative viability is 0.236.

**Q.** What about the relative viability ([8]; first compound 2.53 µM) of the same compound?
**A.** The relative viability was 0.308.

**Q.** And the relative viability ([8]; first compound 8 µM)?
**A.** Its relative viability is 0.164.

**Q.** What about the relative viability ([9]; first compound 0.253 µM) of the same compound?
**A.** The relative viability was 1.03.

**Q.** What about the relative viability ([9]; first compound 0.8 µM) of the same compound?
**A.** The relative viability was 1.1.

**Q.** And the relative viability ([9]; first compound 2.53 µM)?
**A.** Its relative viability is 1.06.

**Q.** And the relative viability ([9]; first compound 8 µM)?
**A.** Its relative viability is 1.09.

**Q.** What about the relative viability ([10]; first compound 0.253 µM) of the same compound?
**A.** Its relative viability is 0.946.

**Q.** And the relative viability ([10]; first compound 2.53 µM)?
**A.** The relative viability was 1.06.

**Q.** What about the relative viability ([10]; first compound 8 µM) of the same compound?
**A.** Its relative viability is 0.948.

**Q.** And the relative viability ([11]; first compound 0.253 µM)?
**A.** Its relative viability is 0.253.

**Q.** And the relative viability ([11]; first compound 0.8 µM)?
**A.** The relative viability was 0.276.

**Q.** What about the relative viability ([11]; first compound 2.53 µM) of the same compound?
**A.** Its relative viability is 0.366.

**Q.** And the relative viability ([11]; first compound 8 µM)?
**A.** Its relative viability is 0.354.
